ChEMBL document CHEMBL5154881, “Discovery of First-in-Class TAK1-MKK3 Protein-Protein Interaction (PPI) Inhibitor (R)-STU104 for the Treatment of Ulcerative Colitis through Modulating TNF-α Production” (J Med Chem, 2022)

Tests used:
[1] = system: RAW264.7; assay: Inhibition of LPS-induced TNFalpha production in mouse RAW264.7 cells at 50 uM preincubated for 2 hrs followed by LPS treatment for 24 hrs by RT-qPCR analysis relative to control; format: functional; settings: time 26 hrs
[2] = system: P-gp (human); assay: Efflux ratio of apparent permeability in dog MDCK-MDR1 cells transfected with human P-gp; format: ADME, cell-based, Canis lupus familiaris
[3] = AUC (0 to t) in 12 hr starved C57 mouse at 5 mg/kg, iv measured for 0.083 to 24 hrs post-dose by LC-MS-MS analysis; format: ADME, organism-based; design: time lower 0.083 hrs, dose 5 mg/kg, time upper 24 hrs, route iv; settings: in vivo
[4] = Cmax in 12 hr starved C57 mouse at 5 mg/kg, iv measured for 0.083 to 24 hrs post-dose by LC-MS-MS analysis; format: ADME, organism-based; design: time upper 24 hrs, time lower 0.083 hrs, dose 5 mg/kg, route iv; settings: in vivo
[5] = Bioavailability in 12 hr starved C57 mouse […] measured for 0.083 to 24 hrs post-dose by LC-MS-MS analysis; format: ADME, organism-based; settings: in vivo, time 0.083-24 hrs
[6] = AUC (0 to infinity) in 12 hr starved C57 mouse at 30 mg/kg, po measured for 0.083 to 24 hrs post-dose by LC-MS-MS analysis; format: ADME, organism-based; design: time upper 24 hrs, dose 30 mg/kg, time lower 0.083 hrs, route po; settings: in vivo
[7] = Apparent volume of distribution in 12 hr starved C57 mouse at 30 mg/kg, po measured for 0.083 to 24 hrs post-dose by LC-MS-MS analysis; format: ADME, organism-based; settings: in vivo, time 0.083-24 hrs
[8] = system: Mus musculus; assay: Anti-ulcerative colitis activity in DSS-induced C57BL/6 mouse ulcerative colitis model assessed as colon length recovery ratio at 1 mg/kg, IG via gavage measured after 7 days relative to control; format: functional; settings: time 7 day
[9] = system: Mus musculus; assay: Antiinflammatory activity against DSS-induced C57BL/6 mouse model of acute ulcerative colitis assessed as inhibition ratio of TNF-alpha protein expression at 3 mg/kg, IG via gavage measured after 7 days by ELISA relative to control; format: functional; design: scale not given: the % may be the effect or the level left; settings: time 7 day
[10] = system: Mus musculus; assay: Antiinflammatory activity against DSS-induced C57BL/6 mouse model of acute ulcerative colitis assessed as inhibition ratio of IL-6 protein expression at 1 mg/kg, IG via gavage measured after 7 days by ELISA relative to control; format: functional; design: scale not given: the % may be the effect or the level left; settings: time 7 day
[11] = system: Mus musculus; assay: Antiinflammatory activity against DSS-induced C57BL/6 mouse model of acute ulcerative colitis assessed as inhibition ratio of IL-23 protein expression at 3 mg/kg, IG via gavage measured after 7 days by ELISA relative to control; format: functional; design: scale not given: the % may be the effect or the level left; settings: time 7 day
[12] = system: Mus musculus; assay: Antiinflammatory activity against DSS-induced C57BL/6 mouse model of acute ulcerative colitis assessed as inhibition ratio of IL-6 mRNA expression in colon tissue at 10 mg/kg, IG via gavage measured after 7 days by RT-qPCR analysis relative to control; format: functional; design: scale not given: the % may be the effect or the level left; settings: time 7 day
[13] = system: Mus musculus; assay: Antiinflammatory activity against DSS-induced C57BL/6 mouse model of acute ulcerative colitis assessed as inhibition ratio of IL-1beta mRNA expression in colon tissue at 10 mg/kg, IG via gavage measured after 7 days by RT-qPCR analysis relative to control; format: functional; design: scale not given: the % may be the effect or the level left; settings: time 7 day
[14] = system: Mus musculus; assay: Antiinflammatory activity against DSS-induced C57BL/6 mouse model of acute ulcerative colitis assessed as inhibition ratio of TNF-alpha mRNA expression in colon tissue at 3 mg/kg, IG via gavage measured after 7 days by RT-qPCR analysis relative to control; format: functional; design: scale not given: the % may be the effect or the level left; settings: time 7 day
[15] = system: Mus musculus; assay: Anti-ulcerative colitis activity in IL-10-/- C57BL/6 mouse model of ulcerative colitis assessed as body weight recovery ratio at 1 mg/kg, IG via gavage for 8 weeks and measured everyday relative to control; format: functional
[16] = system: Mus musculus; assay: Anti-ulcerative colitis activity in IL-10-/- C57BL/6 mouse model of ulcerative colitis assessed as colon length recovery ratio at 3 mg/kg, IG via gavage for 8 weeks relative to control; format: functional
[17] = system: Mus musculus; assay: Anti-ulcerative colitis activity in IL-10-/- C57BL/6 mouse model of ulcerative colitis assessed as histopathological score recovery ratio at 1 mg/kg, IG via gavage for 8 weeks relative to control; format: functional
[18] = system: Mus musculus; assay: Anti-ulcerative colitis activity in IL-10-/- C57BL/6 mouse model of ulcerative colitis assessed as histopathological score recovery ratio at 10 mg/kg, IG via gavage for 8 weeks relative to control; format: functional
[19] = system: Mus musculus; assay: Antiinflammatory activity against IL-10-/- C57BL/6 mouse model of ulcerative colitis assessed as inhibition ratio of IL-1beta protein expression at 1 mg/kg, IG via gavage and measured after 8 weeks by ELISA relative to control; format: functional; design: scale not given: the % may be the effect or the level left
[20] = system: Mus musculus; assay: Antiinflammatory activity against IL-10-/- C57BL/6 mouse model of ulcerative colitis assessed as inhibition ratio of TNF-alpha mRNA expression in colon tissue at 10 mg/kg, IG via gavage and measured after 8 weeks by RT-qPCR analysis relative to control; format: functional; design: scale not given: the % may be the effect or the level left
[21] = system: Mus musculus; assay: Antiinflammatory activity against IL-10-/- C57BL/6 mouse model of ulcerative colitis assessed as inhibition ratio of IL-1beta mRNA expression in colon tissue at 1 mg/kg, IG via gavage and measured after 8 weeks by RT-qPCR analysis relative to control; format: functional; design: scale not given: the % may be the effect or the level left
[22] = system: Mus musculus; assay: Antiinflammatory activity against IL-10-/- C57BL/6 mouse model of ulcerative colitis assessed as inhibition ratio of IL-1beta mRNA expression in colon tissue at 10 mg/kg, IG via gavage and measured after 8 weeks by RT-qPCR analysis relative to control; format: functional; design: scale not given: the % may be the effect or the level left
[23] = system: Mus musculus; assay: Antiinflammatory activity against IL-10-/- C57BL/6 mouse model of ulcerative colitis assessed as inhibition ratio of IL-6 mRNA expression in colon tissue at 1 mg/kg, IG via gavage and measured after 8 weeks by RT-qPCR analysis relative to control; format: functional; design: scale not given: the % may be the effect or the level left
[24] = system: Mus musculus; assay: Inhibition of MKK3-p38 MAPK-elF4E signaling pathway in C57BL/6 mouse model of acute ulcerative colitis assessed as decrease in DSS-induced MKK3 phosphorylation in colon tissue administered intragastrically via gavage measured after 7 days by Western blot analysis; settings: dose 1-50 mg/kg, time 7.0 day, DDE = dose-dependent effect
[25] = Toxicity in C57 mouse assessed as lung damage at 50 to 500 mg/kg, po administered daily for 14 days; format: organism-based; settings: in vivo, 336 h, dose 50-500 mg/kg, time 14 day
[26] = system: Mus musculus; assay: Anti-ulcerative colitis activity against DSS-induced ulcerative colitis C57BL/6 mouse model assessed as reduction in DAI score at 1 mg/kg, IG via gavage administered for 7 days and measured everyday (reference value: 4.0); format: functional; settings: time 7 day
[27] = system: Mus musculus; assay: Anti-ulcerative colitis activity against DSS-induced ulcerative colitis C57BL/6 mouse model assessed as reduction in DAI recovery score ratio at 3 mg/kg, IG via gavage administered for 7 days and measured everyday relative to control; format: functional; design: scale not given: the % may be the effect or the level left; settings: time 7 day

Question: Which inhibition at 50 µM [1] does the source give for `COc1ccc([C@H]2CC(=O)c3cc(OC)cc(OC)c32)cc1` here?
Answer: The inhibition at 50 µM was 62.3%.

Question: What about the efflux ratio [2] of the same molecule?
Answer: The efflux ratio was 0.33.

Question: What about the AUC(0-t) [3] of the same molecule?
Answer: The AUC(0-t) was 7250 ng·h/mL.

Question: And the Cmax [4]?
Answer: Its Cmax is 2920 ng/mL.

Question: What about the bioavailability [5] of the same molecule?
Answer: Its bioavailability is 33%.

Question: What about the AUC [6] of the same molecule?
Answer: Its AUC is 16991 ng·h/mL.

Question: What about the Vz [7] of the same molecule?
Answer: The Vz was 3.68 L/kg.

Question: And the Activity [8]?
Answer: Its Activity is 33.3%.

Question: What about the Activity [9] of the same molecule?
Answer: Its Activity is 55.9%.

Question: What about the Activity [10] of the same molecule?
Answer: Its Activity is 40.4%.

Question: What about the Activity [11] of the same molecule?
Answer: The Activity was 51.6%.

Question: What about the Activity [12] of the same molecule?
Answer: Its Activity is 76%.

Question: What about the Activity [13] of the same molecule?
Answer: The Activity was 95.6%.

Question: What about the Activity [14] of the same molecule?
Answer: Its Activity is 73.2%.

Question: What about the Activity [15] of the same molecule?
Answer: Its Activity is 13.6%.

Question: And the Activity [16]?
Answer: The Activity was 29.4%.

Question: What about the Activity [17] of the same molecule?
Answer: Its Activity is 33%.

Question: What about the Activity [18] of the same molecule?
Answer: The Activity was 56.7%.

Question: And the Activity [19]?
Answer: Its Activity is 40.1%.

Question: What about the Activity [20] of the same molecule?
Answer: The Activity was 68.5%.

Question: What about the Activity [21] of the same molecule?
Answer: The Activity was 22.8%.

Question: And the Activity [22]?
Answer: The Activity was 43.8%.

Question: And the Activity [23]?
Answer: Its Activity is 26.3%.

Question: What about the inhibition [24] of the same molecule?
Answer: Its inhibition is “Dde”.

Question: What about the Activity [25] of the same molecule?
Answer: The Activity was “Non-Toxic”.

Question: And the Activity [26]?
Answer: The Activity was 3.2.

Question: What about the Activity [27] of the same molecule?
Answer: The Activity was 40%.
